By IC50 is commonly meant the point on the concentration scale where inhibition reaches its midpoint.

In this experiment the test system is Human primary T cells. Briefly: IL-2 ELISA, Human Primary T Cell, Anti-CD3+CD28+ (Whole Cell Assay). The experiment is classed as cell-based. To be noted: IL-2 by ELISA, human primary T cells pre-incubated with compound 1 hr, stimulated with αCD3 and αCD28, 24 hours. The method, then: IL-2 ELISA, Human Primary T Cell, Anti-CD3+CD28+ (Whole Cell Assay)
Human primary T cell isolation and culture: Human primary T cells were prepared as follows. Whole blood was obtained from a healthy volunteer, mixed 1:1 with PBS, layered on to Ficoll Hypaque (Amersham Pharmacia Biotech, Piscataway, N.J., Catalog #17-1440-03) in 2:1 blood/PBS:ficoll ratio and centrifuged for 30 min at 4° C. at 1750 rpm. The cells at the serum: ficoll interface were recovered and washed twice with 5 volumes of PBS. These freshly isolated human peripheral blood mononuclear cells were cultured in Yssel's medium containing 40 U/mL IL2 in a flask pre-coated with 1 μg/mL αCD3 and 5 μg/mL αCD28 (Anti-Human CD3, BD Pharmingen Catalog #555336, Anti-Human CD28, Beckman Coulter Catalog #1M1376). The cells were stimulated for 3-4 days, then transferred to a fresh flask and maintained in RPMI (RPMI-1640 with L-Glutamine; Mediatech, Inc., Herndon Va., cat. #10-040-CM) with 10% FBS and 40 U/mL IL-2. The primary T-cells were then washed twice with PBS to remove the IL-2.
Primary T cell stimulation and IL2 ELISA: Human primary T cells (100,000 cells per well) were pre-incubated with or without test compound in Yssel's medium for 1 hr at 37° C. Cells were then stimulated by transferring them to round-bottom 96-well plates pre-coated with 1 μg/ml αCD3 and 5 μg/ml αCD28. For counter assay, cells were instead stimulated by adding 8× stock solutions of PMA and ionomycin in Yssels (for final concentrations of 0.5 ng/ml PMA and 0.1 μM ionomycin, both from Calbiochem). Cells were incubated at 37° C. for 24 hours before 100 μL supernatants were harvested for quantification of IL-2 by ELISA using Human IL-2 Duoset ELISA Kit from R and D Systems, Cat. # DY202E.
Regarding `CC1(C)CC(Nc2nc(Nc3cc(-n4cnnn4)c(C4CC4)cc3F)ncc2C#N)CC(C)(C)N1` [Compound I-2, 2-(4-Cyclopropyl-2-fluoro-5-tetrazol-1-yl-phenylamino)-4-(2,2,6,6-tetramethyl-piperidin-4-ylamino)-pyrimidine-5-carbonitrile], the IC50 is less than 250 nM.

Regarding `CC1(C)CC(Nc2nc(Nc3cc(-n4cnnn4)c(C4CC4)cc3F)ncc2C(N)=O)CC(C)(C)N1` [Compound I-3, 2-(4-Cyclopropyl-2-fluoro-5-tetrazol-1-yl-phenylamino)-4-(2,2,6,6-tetramethyl-piperidin-4-ylamino)-pyrimidine-5-carboxylic acid amide], the IC50 lay within 500 to 1000 nM. With `CC1(C)CC(Nc2nc(Nc3cc(F)c(C4CC4)c(-n4cnnn4)c3)ncc2C#N)CC(C)(C)N1` [Compound I-4, 2-(4-Cyclopropyl-3-fluoro-5-tetrazol-1-yl-phenylamino)-4-(2,2,6,6-tetramethyl-piperidin-4-ylamino)-pyrimidine-5-carbonitrile] the figure was less than 250 nM. With `CC1(C)CC(Nc2nc(Nc3cc(F)c(C4CC4)c(-n4cnnn4)c3)ncc2F)CC(C)(C)N1` [Compound I-5, N2-(4-Cyclopropyl-3-fluoro-5-tetrazol-1-yl-phenyl)-5-fluoro-N4-(2,2,6,6-tetramethyl-piperidin-4-yl)-pyrimidine-2,4-diamine] the figure was less than 250 nM; with `CC1(C)CC(Nc2nc(Nc3cc(C4CC4)c(F)c(-n4cnnn4)c3)ncc2C#N)CC(C)(C)N1` [Compound I-6, 2-(3-Cyclopropyl-4-fluoro-5-tetrazol-1-yl-phenylamino)-4-(2,2,6,6-tetramethyl-piperidin-4-ylamino)-pyrimidine-5-carbonitrile], less than 250 nM; with `CC1(C)CC(Nc2nc(Nc3cc(C4CC4)c(F)c(-n4cnnn4)c3)ncc2F)CC(C)(C)N1` [Compound I-7, N2-(3-Cyclopropyl-4-fluoro-5-tetrazol-1-yl-phenyl)-5-fluoro-N4-(2,2,6,6-tetramethyl-piperidin-4-yl)-pyrimidine-2,4-diamine], less than 250 nM. The result for `CC(C)c1cc(F)c(Nc2ncc(C#N)c(NC3CC(C)(C)NC(C)(C)C3)n2)cc1-n1cnnn1` [Compound I-8, 2-(2-Fluoro-4-isopropyl-5-tetrazol-1-yl-phenylamino)-4-(2,2,6,6-tetramethyl-piperidin-4-ylamino)-pyrimidine-5-carbonitrile] reads less than 250 nM. In the case of `CC(C)c1ccc(Nc2ncc(F)c(NC3CC(C)(C)NC(C)(C)C3)n2)cc1-n1cnnn1` [Compound I-9, 5-Fluoro-N2-(4-isopropyl-3-tetrazol-1-yl-phenyl)-N4-(2,2,6,6-tetramethyl-piperidin-4-yl)-pyrimidine-2,4-diamine], the IC50 was less than 250 nM. The result for `CC(C)c1ccc(Nc2ncc(C(N)=O)c(NC3CC(C)(C)NC(C)(C)C3)n2)cc1-n1cnnn1` [Compound I-10, 2-(4-Isopropyl-3-tetrazol-1-yl-phenylamino)-4-(2,2,6,6-tetramethyl-piperidin-4-ylamino)-pyrimidine-5-carboxylic acid amide] reads 250 to 500 nM; that for `CC(C)c1ccc(Nc2ncc(C#N)c(NC3CC(C)(C)NC(C)(C)C3)n2)cc1-n1cnnn1` [Compound I-11, 2-(4-Isopropyl-3-tetrazol-1-yl-phenylamino)-4-(2,2,6,6-tetramethyl-piperidin-4-ylamino)-pyrimidine-5-carbonitrile], less than 250 nM. The result for `CC1(C)CC(Nc2nc(Nc3cc(-n4cnnn4)c(C4CC4)cc3F)ncc2F)CC(C)(C)N1` [Compound I-12, N2-(4-Cyclopropyl-2-fluoro-5-tetrazol-1-yl-phenyl)-5-fluoro-N4-(2,2,6,6-tetramethyl-piperidin-4-yl)-pyrimidine-2,4-diamine] reads less than 250 nM; that for `CC1(C)CC(Nc2nc(Nc3cc(-n4cnnn4)ccc3F)ncc2F)CC(C)(C)N1` [Compound I-13, 5-Fluoro-N2-(2-fluoro-5-tetrazol-1-yl-phenyl)-N4-(2,2,6,6-tetramethyl-piperidin-4-yl)-pyrimidine-2,4-diamine], less than 250 nM. With `CN1C(C)(C)CC(Nc2nc(Nc3cc(-n4cnnn4)ccc3F)ncc2F)CC1(C)C` [Compound I-14, 5-Fluoro-N2-(2-fluoro-5-tetrazol-1-yl-phenyl)-N4-(1,2,2,6,6-pentamethyl-piperidin-4-yl)-pyrimidine-2,4-diamine] the figure was less than 250 nM.

With `CC1(C)CC(Nc2nc(Nc3ccc(C4CC4)c(-n4nnnc4C(F)(F)F)c3)ncc2F)CC(C)(C)N1` [Compound I-15, N2-[4-Cyclopropyl-3-(5-trifluoromethyl-tetrazol-1-yl)-phenyl]-5-fluoro-N4-(2,2,6,6-tetramethyl-piperidin-4-yl)-pyrimidine-2,4-diamine], the IC50 is less than 250 nM.

Take `CC(C)c1nnnn1-c1cc(Nc2ncc(F)c(NC3CC(C)(C)NC(C)(C)C3)n2)c(F)cc1C1CC1` [Compound I-16, N2-(4-cyclopropyl-2-fluoro-5-(5-isopropyl-1H-tetrazol-1-yl)phenyl)-5-fluoro-N4-(2,2,6,6-tetramethylpiperidin-4-yl)pyrimidine-2,4-diamine]: the IC50 was less than 250 nM. The result for `CC1(C)CC(Nc2nc(Nc3cc(-n4nnnc4C4CC4)c(C4CC4)cc3F)ncc2F)CC(C)(C)N1` [Compound I-17, N2-(4-cyclopropyl-5-(5-cyclopropyl-1H-tetrazol-1-yl)-2-fluorophenyl)-5-fluoro-N4-(2,2,6,6-tetramethylpiperidin-4-yl)pyrimidine-2,4-diamine] reads less than 250 nM. The result for `Cc1nnnn1-c1cc(Nc2ncc(F)c(NC3CC(C)(C)NC(C)(C)C3)n2)c(F)cc1C1CC1` [Compound I-18, N2-(4-cyclopropyl-2-fluoro-5-(5-methyl-1H-tetrazol-1-yl)phenyl)-5-fluoro-N4-(2,2,6,6-tetramethylpiperidin-4-yl)pyrimidine-2,4-diamine] reads less than 250 nM; that for `CC1(C)CC(Nc2nc(Nc3cc(-n4nnnc4C(F)(F)F)c(C4CC4)cc3F)ncc2F)CC(C)(C)N1` [Compound I-19, N2-(4-cyclopropyl-2-fluoro-5-(5-(trifluoromethyl)-1H-tetrazol-1-yl)phenyl)-5-fluoro-N4-(2,2,6,6-tetramethylpiperidin-4-yl)pyrimidine-2,4-diamine], less than 250 nM; that for `CC1(C)CC(Nc2nc(Nc3cc(-n4nnnc4CF)c(C4CC4)cc3F)ncc2F)CC(C)(C)N1` [Compound I-20, N2-(4-cyclopropyl-2-fluoro-5-(5-(fluoromethyl)-1H-tetrazol-1-yl)phenyl)-5-fluoro-N4-(2,2,6,6-tetramethylpiperidin-4-yl)pyrimidine-2,4-diamine], less than 250 nM.

(Values after patent US9181222B2, “Protein kinase C inhibitors and uses thereof” (Rigel Pharmaceuticals, Inc., priority 2010, dated 2015).)
